Measurements published in patent publication US12312359B2 (Vitae Pharmaceuticals, LLC, priority 2016, dated 2025).

Assays:
[1] = molecular target: T1, biotinylated wild-type menin and MLL-AF9 fusion protein (menin/MLL binding) (Homo sapiens, UniProt O00255); test: Assay 1: menin/MLL binding AlphaLISA assay, wild-type menin; conditions: Table 30; column head does not say wild-type or mutated menin
T1 construct: made in house; host or cells: menin: E. coli; MLL-AF9-FLAG: HEK293 cells, used as cleared lysate
T1 sequence (O00255 1-610): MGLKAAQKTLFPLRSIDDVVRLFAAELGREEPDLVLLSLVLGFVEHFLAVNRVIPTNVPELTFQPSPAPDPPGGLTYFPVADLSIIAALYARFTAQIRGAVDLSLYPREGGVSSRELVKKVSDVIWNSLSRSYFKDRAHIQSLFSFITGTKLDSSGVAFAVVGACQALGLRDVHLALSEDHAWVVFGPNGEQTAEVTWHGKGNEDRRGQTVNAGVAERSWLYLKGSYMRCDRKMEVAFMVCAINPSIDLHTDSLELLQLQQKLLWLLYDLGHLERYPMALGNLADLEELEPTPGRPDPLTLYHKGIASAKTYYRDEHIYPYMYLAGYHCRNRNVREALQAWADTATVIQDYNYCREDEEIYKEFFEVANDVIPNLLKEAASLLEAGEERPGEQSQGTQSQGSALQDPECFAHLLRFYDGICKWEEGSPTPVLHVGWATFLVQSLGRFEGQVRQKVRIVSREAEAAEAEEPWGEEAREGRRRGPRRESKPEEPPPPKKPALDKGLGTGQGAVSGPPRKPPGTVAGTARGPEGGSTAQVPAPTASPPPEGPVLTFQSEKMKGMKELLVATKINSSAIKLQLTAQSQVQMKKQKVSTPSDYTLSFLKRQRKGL
Procedure, shortened: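 Compound was preincubated 30 min at room temperature with biotinylated menin (5 nM) and MLL-AF9-FLAG lysate from HEK293 cells, pH 7.4 buffer with 5% DMSO and DTT. Bead-based Alpha signal after 60 min with streptavidin donor and anti-FLAG acceptor beads; four-parameter logistic fit gave IC50.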

[2] = test system: human acute monocytic leukemia cell line MV-4-11; test: Assay 2: cell proliferation assay (ATP quantitation, CellTiter-Glo), MV-4-11; type: cell-based; conditions: MV-4-11 cells
Procedure, shortened: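 Read-out is CellTiter-Glo luminescence quantifying ATP. Compound exposure lasted 72 h at 37° C., 5% CO2, with 1.67×10^4 MV-4-11 cells per well in 10% FBS medium, alongside HL-60 toxicity-control cells.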

Row | IC50 [1] [nM] | EC50 ([2]; Homo sapiens, MV4-11, 72 h) [nM] | EC50 ([2]; 72 h) [nM] | Compound
1 | < 100 | 100 to 1000 | – | CC(C)n1nccc1-c1cc(F)ccc1Oc1cncnc1N1CC2(CN(CC3CCCC(F)(F)C3)C2)C1 (centres unmarked) [Example 231, 2-((3,3-difluorocyclohexyl)methyl)-6-(5-(4-fluoro-2-(1-isopropyl-1H-pyrazol-5-yl)phenoxy)pyrimidin-4-yl)-2,6-diazaspiro[3.3] heptane]
2 | < 100 | < 100 | – | COC(=O)N(c1cc(F)ccc1Oc1cncnc1N1CCC2(CCN(Cc3ccc4[nH]c(=O)[nH]c4c3)C2)C1)C(C)C (centres unmarked) [Example 144, methyl (5-fluoro-2-((4-(7-((2-oxo-2,3-dihydro-1H-benzo[d]imidazol-5-yl)methyl)-2,7-diazaspiro[4.4]nonan-2-yl)pyrimidin-5-yl)oxy)phenyl)(iso-propyl)carbamate]
3 | < 100 | – | < 100 | CC(C)N(C)C(=O)c1cc(F)ccc1Oc1cncnc1N1CCC2(CCN(Cc3ccc4[nH]c(=O)[nH]c4c3)C2)C1 (single isomer, unassigned) [Example 183B, 5-fluoro-N-isopropyl-N-methyl-2-((4-(7-((2-oxo-2,3-dihydro-1H-benzo[d]imidazol-5-yl)methyl)-2,7-diazaspiro[4.4]nonan-2-yl)pyrimidin-5-yl)oxy)benzamide]
4 | < 100 | 100 to 1000 | – | COc1cc(F)ccc1Oc1cncnc1N1CCC2(CCN(Cc3ccc4[nH]c(=O)[nH]c4c3)C2)C1 (centres unmarked) [Example 209, 5-((7-(5-(4-fluoro-2-methoxyphenoxy)pyrimidin-4-yl)-2,7-diazaspiro[4.4]nonan-2-yl)methyl)-1,3-dihydro-2H-benzo[d]imidazol-2-one]
5 | < 100 | 100 to 1000 | – | CC(C)c1ccccc1-c1cc(F)ccc1Oc1cnccc1N1CCC2(CCN(Cc3ccc4[nH]c(=O)[nH]c4c3)C2)C1 (centres unmarked) [Example 249, 5-((7-(3-((5-fluoro-2′-isopropyl-[1,1′-biphenyl]-2-yl)oxy)pyridin-4-yl)-2,7-diazaspiro[4.4]nonan-2-yl)methyl)-1,3-dihydro-2H-benzo[d]imidazol-2-one]
6 | < 100 | 100 to 1000 | – | CC(C)N(C)C(=O)c1cc(F)ccc1Oc1cncnc1N1CCC2(CCN(Cc3ccc4c(C#N)n[nH]c4c3)C2)C1 (centres unmarked) [Example 146, 2-((4-(7-((3-cyano-1H-indazol-6-yl)methyl)-2,7-diazaspiro[4.4]nonan-2-yl)pyrimidin-5-yl)oxy)-5-fluoro-N-isopropyl-N-methylbenzamide]
7 | < 100 | 100 to 1000 | – | CC(C)c1ccccc1-c1cc(F)ccc1Nc1cncnc1N1CC2(CN(CC3CCOCC3)C2)C1 [Example 15, N-(5-fluoro-2′-isopropyl-[1,1′-biphenyl]-2-yl)-4-(6-((tetrahydro-2H-pyran-4-yl)methyl)-2,6-diazaspiro[3.3]heptan-2-yl)pyrimidin-5-amine]
8 | < 100 | ≥ 1000 | – | CC(=O)Nc1ccc(CN2C(=O)C3(CCN(c4ncncc4Oc4ccc(F)cc4C(=O)N(C)C(C)C)C3)N=C2N)cc1 (centres unmarked) [Example 251, 2-((4-(3-(4-acetamidobenzyl)-2-amino-4-oxo-1,3,7-triazaspiro[4.4]non-1-en-7-yl)pyrimidin-5-yl)oxy)-5-fluoro-N-isopropyl-N-methylbenzamide]
9 | < 100 | 100 to 1000 | – | CC(C)c1ccccc1-c1cc(F)ccc1Nc1cncnc1N1CC2(CN(CC3(O)CCCCC3)C2)C1 [Example 242, 1-((6-(5-((5-fluoro-2′-isopropyl-[1,1′-biphenyl]-2-yl)amino)pyrimidin-4-yl)-2,6-diazaspiro [3.3]heptan-2-yl)methyl) cyclohexan-1-ol]
10 | < 100 | < 100 | – | CC(C)N(C(=O)c1cc(F)ccc1Oc1cncnc1N1CCC2(CCN(Cc3ccc4[nH]c(=O)[nH]c4c3)C2)C1)C1CC1 (centres unmarked) [Example 122, N-cyclopropyl-5-fluoro-N-isopropyl-2-((4-(7-((2-oxo-2,3-dihydro-1H-benzo[d]imidazol-5-yl)methyl)-2,7-diazaspiro[4.4]nonan-2-yl)pyrimidin-5-yl)oxy)benzamide]
